# Experimental data published in patent publication US20260166017A1, “SARM1 INHIBITORS FOR USE IN THERAPY AND COSMETICS” (priority 2022, published 2026).
# “Also recorded” adds a separate entry of the source.
# Tests used:
# [1] = test system: expanded mouse Schwann cells; test: Cell death in expanded mouse Schwann cells passaged three times (phase contrast, propidium iodide); format: cell-based; conditions: 100 μM vacor for 72 hours vs DMSO; Schwann cells passaged three times in proliferative medium
# Experimental: Mouse SCs were passaged on PLL/laminin coated dishes in the presence of low serum (0.5% horse serum), 10 ng/ml Bneuregulin1 (BNRG1), and a low concentration cyclic adenosine monophosphate (CAMP) elevating signal, such as 2 μM forskolin or 100 μM dibutryl cAMP (Arthur-Farraj et al., 2011). Full protocol is described in (Mutschler et al., 2023).
# Schwann cells = test: Intracellular NAD+ in Schwann cells (NAD-glo assay); format: cell-based, mouse; conditions: 100 μM vacor, 72 hours, compared to DMSO control
# Experimental: Freshly plated mouse Schwann cells were obtained from P2 sciatic and brachial nerves. Nerves were digested with trypsin and collagenase, centrifuged and plated on laminin/Poly-L-lysine coated glass coverslips in defined medium as previously described (Arthur-Farraj et al., 2011).
# […] Protein was extracted using Pierce™ IP Lysis Buffer supplemented with cOmplete™ Mini EDTA-free Protease Inhibitor Cocktail, and a BCA assay carried out to determine protein concentration. All samples were diluted to 0.5 μg/μL. The NAD-glo assay was performed according to manufacturer's instruction of the NAD^+/NADH-Glo™ assay by Promega (G9071). In short, 25 μL of sample were incubated with 12.5 μL 0.4M HCl at 60° C. for 15 min, before 12.5 μL 0.5M Tris base were added. 10 μL NAD^+ standards or sample were then mixed with 10 μL NAD-glo master mix (1 ml luciferin detection reagent, 5 μl reductase, 5 μl reductase substrate, 5 μl NAD^+ cycling enzyme, 25 μl NAD^+ cycling substrate) and incubated at RT for 40 min. Luminescence was read using a GloMax® Explorer microplate reader and NAD^+ concentrations determined relative to a NAD^+ standard curve.
# SARM1 = target: T1, SARM1 (Homo sapiens, UniProt Q6SZW1); conditions: Loreto et al., 2021; Angeletti et al., 2022; Wu et al.; cited from earlier work
# T1 sequence (Q6SZW1 28-724): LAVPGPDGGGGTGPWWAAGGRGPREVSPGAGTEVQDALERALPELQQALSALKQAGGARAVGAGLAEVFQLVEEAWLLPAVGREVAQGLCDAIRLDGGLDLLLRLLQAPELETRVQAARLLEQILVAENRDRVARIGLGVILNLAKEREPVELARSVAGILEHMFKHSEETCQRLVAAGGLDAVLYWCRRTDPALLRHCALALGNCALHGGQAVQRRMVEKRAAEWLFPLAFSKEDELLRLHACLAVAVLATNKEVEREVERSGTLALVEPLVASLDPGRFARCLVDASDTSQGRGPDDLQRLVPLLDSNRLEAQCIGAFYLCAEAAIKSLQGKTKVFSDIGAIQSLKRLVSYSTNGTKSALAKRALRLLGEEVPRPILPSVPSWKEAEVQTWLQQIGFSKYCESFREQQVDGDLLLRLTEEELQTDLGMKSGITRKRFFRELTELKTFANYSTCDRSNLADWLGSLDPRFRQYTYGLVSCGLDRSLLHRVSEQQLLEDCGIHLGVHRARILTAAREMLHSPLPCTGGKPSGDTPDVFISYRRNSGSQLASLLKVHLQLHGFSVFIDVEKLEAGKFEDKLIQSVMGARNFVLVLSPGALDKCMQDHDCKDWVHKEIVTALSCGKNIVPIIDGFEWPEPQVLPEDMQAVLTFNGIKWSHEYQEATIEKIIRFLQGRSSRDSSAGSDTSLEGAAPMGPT
# HEK293 cells = test: Intracellular NAD+ in HEK293 cells (NAD-glo assay); format: cell-based, Human; conditions: 100 μM vacor, 72 hours
# Experimental: Schwann and HEK 293T cells were treated with 100 μM vacor, 250 μM 3AP, or vehicle controls, and collected in media at Oh and 72 h after treatment. Protein was extracted using Pierce™ IP Lysis Buffer supplemented with cOmplete™ Mini EDTA-free Protease Inhibitor Cocktail, and a BCA assay carried out to determine protein concentration. All samples were diluted to 0.5 μg/μL. The NAD-glo assay was performed according to manufacturer's instruction of the NAD^+/NADH-Glo™ assay by Promega (G9071). In short, 25 μL of sample were incubated with 12.5 μL 0.4M HCl at 60° C. for 15 min, before 12.5 μL 0.5M Tris base were added. 10 μL NAD^+ standards or sample were then mixed with 10 μL NAD-glo master mix (1 ml luciferin detection reagent, 5 μl reductase, 5 μl reductase substrate, 5 μl NAD^+ cycling enzyme, 25 μl NAD^+ cycling substrate) and incubated at RT for 40 min. Luminescence was read using a GloMax® Explorer microplate reader and NAD^+ concentrations determined relative to a NAD^+ standard curve.
# Human foetal DRG axons = test: Axon degeneration and regeneration assay in human foetal DRGs in microfluidic chambers; format: cell-based; conditions: 24 h after addition of 25 μM Vacor in the axonal compartment
# Experimental: Human foetal DRG ganglia were dissected, dissociated and plated in microfluidic chambers (150 μm barrier, XONA Microfluidics) in 35 mm tissue culture dishes pre-coated with poly-L-lysine (100 μg/ml for 1 hr; Merck) and laminin (20 μg/ml for 1 hr; Merck) in Dulbecco's Modified Eagle's Medium (DMEM, Gibco) with 1% penicillin/streptomycin, 33 ng/ml 2.5 S NGF (all Invitrogen) and 2% B27 (Gibco). 4 μM aphidicolin (Merck) was used to reduce proliferation and viability of small numbers of non-neuronal cells. On DIV7, a difference of 100 μl of media between chambers was introduced and drugs were added to the compartment with the lower hydrostatic pressure. Phase contrast microscopy images were acquired on a DMi8 upright fluorescence microscope (Leica microsystems) coupled to a monochrome digital camera (Hamamatsu C4742-95). The objective used was HCXPL 20 X/0.40 CORR.
structure (smiles),measurement,setting,value
"O=C(NCc1cccnc1)Nc1ccc([N+](=O)[O-])cc1 [vacor, Vacor]",cell death by propidium iodide (P.I.) staining and phase contrast,[1],susceptible to cellular dysfunction and death; also recorded: substantial increase in P.I. staining
same,Intracellular NAD+ levels,Schwann cells,no reduction; also recorded: do not change
same,SARM1 activity on interaction with active site (TIR domain) for base exchange reaction,SARM1,modest increase in SARM1 activity
same,Intracellular NAD+ levels,HEK293 cells,decrease
same,DRG axon degeneration,Human foetal DRG axons,degenerate
